Measured values reported in ChEMBL document CHEMBL1129183, “Correlation of oxidation potential and toxicity in thiobenzamides” (Bioorg Med Chem Lett, 1996).

Experiment: Lethal dose to rats was determined
Assay type: toxicity
Settings: rat, in vivo

SMILES	Dose [mM/kg]
Cc1ccc(C(N)=S)cc1	2
COc1ccc(C(N)=S)cc1	2
